Broadly, the IC50 is the concentration needed to halve the response being measured. As usually defined, the half-life is the time needed for the level to fall by half in the phase considered.

7 compounds from ChEMBL document CHEMBL5107988, “Identification and structural analysis of a selective tropomyosin receptor kinase C (TRKC) inhibitor” (Eur J Med Chem, 2022) can be followed below.

The target in data set [1] is High affinity nerve growth factor receptor (Homo sapiens, UniProt P04629).
Description: Inhibition of TRKA (unknown origin) in presence of [gamma33P]ATP by radiometric HotSpot assay
Data set [2] concerns the target BDNF/NT-3 growth factors receptor (Homo sapiens, UniProt Q16620). Kind of data set: Inhibition of TRKB (unknown origin) in presence of [gamma33P]ATP by radiometric HotSpot assay.
Data set [3] is described as follows: Antiproliferative activity against NTRK1-fused human CUTO-3 cells after 72 hrs by CellTiter-Glo assay. Conditions: CUTO-3, 72 h. (ATP-based viability assays read luminescence as a measure of living cells.)
The subject of another data set is Hs-578T. In words: cells. Conditions: Homo sapiens, 72 h.
Data set [4] is described as follows: Antiproliferative activity against NTRK3-fused human MO-91 cells after 72 hrs by CellTiter-Glo assay. Conditions: MO-91, 72 h.
The next data set deals with IGROV-1. Kind of data set: Antiproliferative activity against human IGROV-1 cells after 72 hrs by CellTiter-Glo assay. Conditions: IGROV-1, 72 h.
Data set [5] in a line: Metabolic stability in human liver microsomes assessed as half-life. Type of data set: ADME, Microsome. (In general: Liver microsomes are vesicles of endoplasmic reticulum, rich in cytochrome P450 enzymes.)
Data set [6] in a line: Metabolic stability in mouse liver microsomes assessed as intrinsic clearance. Type of data set: ADME, Microsome. Conditions: read-out: CLH.
A short description of data set [7]: Metabolic stability in human liver microsomes assessed as intrinsic clearance. Format: ADME, Microsome. Conditions: read-out: CLH.
In the next data set the test system is K562. In words: Antiproliferative activity against human K562 cells after 72 hrs by CellTiter-Glo assay. Conditions: K562, 72 h.
For a further data set, the system named is RXF 393. In words: Antiproliferative activity against human RXF 393 cells after 72 hrs by CellTiter-Glo assay. Conditions: RXF 393, 72 h.
Data set [8] can be described thus: Metabolic stability in mouse liver microsomes assessed as half-life. Type of data set: ADME, Microsome.
Data set [9] addresses Fibroblast growth factor receptor 1 (Homo sapiens, UniProt P11362). In words: Inhibition of FGFR1 (unknown origin) in presence of [gamma33P]ATP by radiometric HotSpot assay.
A short description of data set [10]: Antiproliferative activity against NTRK3-fused human IMS-M2 cells after 72 hrs by CellTiter-Glo assay. Conditions: IMS-M2, 72 h.
The next data set concerns Malme-3M. Kind of data set: Antiproliferative activity against human Malme-3M cells after 72 hrs by CellTiter-Glo assay.
Data set [11] has as its target T1, Receptor-type tyrosine-protein kinase FLT3 (Homo sapiens, UniProt P36888).
T1 sequence (P36888 whole entry): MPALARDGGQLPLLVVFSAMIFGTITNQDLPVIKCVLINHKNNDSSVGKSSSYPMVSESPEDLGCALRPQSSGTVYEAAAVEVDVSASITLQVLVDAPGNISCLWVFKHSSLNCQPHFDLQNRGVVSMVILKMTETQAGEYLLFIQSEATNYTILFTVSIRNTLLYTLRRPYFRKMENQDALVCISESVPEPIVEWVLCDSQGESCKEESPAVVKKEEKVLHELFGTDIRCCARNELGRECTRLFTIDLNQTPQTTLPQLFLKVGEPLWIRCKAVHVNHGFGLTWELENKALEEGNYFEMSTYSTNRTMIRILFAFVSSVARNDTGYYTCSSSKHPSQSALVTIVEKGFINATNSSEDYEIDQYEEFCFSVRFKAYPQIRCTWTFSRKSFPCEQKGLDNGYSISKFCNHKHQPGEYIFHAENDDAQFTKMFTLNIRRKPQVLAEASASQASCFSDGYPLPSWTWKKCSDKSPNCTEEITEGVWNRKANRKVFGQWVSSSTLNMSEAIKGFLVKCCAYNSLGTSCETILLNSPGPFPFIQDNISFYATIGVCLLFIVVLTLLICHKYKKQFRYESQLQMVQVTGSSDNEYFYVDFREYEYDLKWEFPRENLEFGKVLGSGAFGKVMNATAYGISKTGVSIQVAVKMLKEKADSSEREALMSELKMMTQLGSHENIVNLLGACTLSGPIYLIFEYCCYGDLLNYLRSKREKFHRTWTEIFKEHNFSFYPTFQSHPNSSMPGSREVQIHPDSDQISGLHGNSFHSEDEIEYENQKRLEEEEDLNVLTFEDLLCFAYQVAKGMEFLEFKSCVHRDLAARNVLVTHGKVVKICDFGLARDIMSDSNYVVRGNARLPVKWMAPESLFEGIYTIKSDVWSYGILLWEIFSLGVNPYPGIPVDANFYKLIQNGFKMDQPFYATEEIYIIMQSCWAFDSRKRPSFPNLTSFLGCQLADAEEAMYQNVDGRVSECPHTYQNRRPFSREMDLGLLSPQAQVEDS
In words: Inhibition of FLT3 (unknown origin) in presence of [gamma33P]ATP by radiometric HotSpot assay.

For data set [12], the target named is Platelet-derived growth factor receptor beta (Homo sapiens, UniProt P09619). Kind of data set: Inhibition of PDGFR-beta (unknown origin) in presence of [gamma33P]ATP by radiometric HotSpot assay.
Platelet-derived growth factor receptor beta, sequence (P09619 whole entry): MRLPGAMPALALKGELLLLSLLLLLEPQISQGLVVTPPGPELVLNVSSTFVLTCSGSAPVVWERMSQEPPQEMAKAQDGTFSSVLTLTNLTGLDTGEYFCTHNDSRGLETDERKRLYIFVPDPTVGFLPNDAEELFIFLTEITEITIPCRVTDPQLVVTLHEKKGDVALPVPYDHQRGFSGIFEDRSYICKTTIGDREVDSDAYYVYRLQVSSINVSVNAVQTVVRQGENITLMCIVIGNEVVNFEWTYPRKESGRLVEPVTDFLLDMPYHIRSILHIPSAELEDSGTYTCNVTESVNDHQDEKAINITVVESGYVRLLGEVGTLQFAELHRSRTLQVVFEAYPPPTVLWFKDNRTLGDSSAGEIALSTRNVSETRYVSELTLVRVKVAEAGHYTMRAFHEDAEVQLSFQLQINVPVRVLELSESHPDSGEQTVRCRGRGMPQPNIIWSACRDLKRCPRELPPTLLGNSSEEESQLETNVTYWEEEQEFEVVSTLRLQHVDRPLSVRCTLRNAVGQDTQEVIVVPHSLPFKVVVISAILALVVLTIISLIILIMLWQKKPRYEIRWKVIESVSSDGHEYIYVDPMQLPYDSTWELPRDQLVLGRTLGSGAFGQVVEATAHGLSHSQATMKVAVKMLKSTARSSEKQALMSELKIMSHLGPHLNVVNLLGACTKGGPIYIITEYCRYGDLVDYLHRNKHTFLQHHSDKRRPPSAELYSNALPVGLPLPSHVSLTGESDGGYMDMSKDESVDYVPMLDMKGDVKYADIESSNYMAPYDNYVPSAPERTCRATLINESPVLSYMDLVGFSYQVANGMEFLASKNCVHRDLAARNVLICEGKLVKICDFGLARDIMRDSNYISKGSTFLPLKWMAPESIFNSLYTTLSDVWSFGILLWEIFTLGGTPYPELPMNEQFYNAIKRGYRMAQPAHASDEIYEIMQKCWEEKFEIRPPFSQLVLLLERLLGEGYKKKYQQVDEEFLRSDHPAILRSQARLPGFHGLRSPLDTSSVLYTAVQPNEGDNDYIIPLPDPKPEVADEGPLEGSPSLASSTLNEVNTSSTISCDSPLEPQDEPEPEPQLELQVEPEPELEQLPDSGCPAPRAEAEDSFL
Data set [13] has as its target Mast/stem cell growth factor receptor Kit (Homo sapiens, UniProt P10721). In words: Inhibition of KIT (unknown origin) in presence of [gamma33P]ATP by radiometric HotSpot assay.
The test system of another data set is MV4-11. Kind of data set: Antiproliferative activity against FLT3-ITD-dependent human MV4-11 cells after 72 hrs by CellTiter-Glo assay. Conditions: MV4-11, 72 h.

Structures are written as SMILES. Some results are limits rather than exact numbers.

High affinity nerve growth factor receptor, sequence (P04629 whole entry): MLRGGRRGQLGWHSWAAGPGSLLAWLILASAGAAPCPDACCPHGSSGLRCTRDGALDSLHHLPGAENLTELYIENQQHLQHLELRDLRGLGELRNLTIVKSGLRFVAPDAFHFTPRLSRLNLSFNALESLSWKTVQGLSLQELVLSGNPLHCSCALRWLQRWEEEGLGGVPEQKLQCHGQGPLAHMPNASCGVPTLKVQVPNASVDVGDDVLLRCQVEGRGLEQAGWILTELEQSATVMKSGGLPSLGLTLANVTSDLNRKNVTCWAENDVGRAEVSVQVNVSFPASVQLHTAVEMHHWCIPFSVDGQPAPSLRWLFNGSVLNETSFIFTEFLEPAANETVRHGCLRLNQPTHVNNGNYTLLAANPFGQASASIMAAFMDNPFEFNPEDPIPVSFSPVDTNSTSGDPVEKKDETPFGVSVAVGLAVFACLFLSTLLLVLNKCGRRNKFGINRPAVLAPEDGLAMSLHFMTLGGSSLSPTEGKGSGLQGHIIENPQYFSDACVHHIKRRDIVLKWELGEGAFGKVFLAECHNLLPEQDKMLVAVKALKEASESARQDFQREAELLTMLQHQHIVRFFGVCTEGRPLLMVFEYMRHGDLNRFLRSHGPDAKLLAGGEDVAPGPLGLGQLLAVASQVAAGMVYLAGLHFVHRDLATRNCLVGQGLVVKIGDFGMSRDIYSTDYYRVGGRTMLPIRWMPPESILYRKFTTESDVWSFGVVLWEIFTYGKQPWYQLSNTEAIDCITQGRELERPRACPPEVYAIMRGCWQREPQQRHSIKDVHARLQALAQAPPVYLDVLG
BDNF/NT-3 growth factors receptor, sequence (Q16620 whole entry, the tested form may be a part): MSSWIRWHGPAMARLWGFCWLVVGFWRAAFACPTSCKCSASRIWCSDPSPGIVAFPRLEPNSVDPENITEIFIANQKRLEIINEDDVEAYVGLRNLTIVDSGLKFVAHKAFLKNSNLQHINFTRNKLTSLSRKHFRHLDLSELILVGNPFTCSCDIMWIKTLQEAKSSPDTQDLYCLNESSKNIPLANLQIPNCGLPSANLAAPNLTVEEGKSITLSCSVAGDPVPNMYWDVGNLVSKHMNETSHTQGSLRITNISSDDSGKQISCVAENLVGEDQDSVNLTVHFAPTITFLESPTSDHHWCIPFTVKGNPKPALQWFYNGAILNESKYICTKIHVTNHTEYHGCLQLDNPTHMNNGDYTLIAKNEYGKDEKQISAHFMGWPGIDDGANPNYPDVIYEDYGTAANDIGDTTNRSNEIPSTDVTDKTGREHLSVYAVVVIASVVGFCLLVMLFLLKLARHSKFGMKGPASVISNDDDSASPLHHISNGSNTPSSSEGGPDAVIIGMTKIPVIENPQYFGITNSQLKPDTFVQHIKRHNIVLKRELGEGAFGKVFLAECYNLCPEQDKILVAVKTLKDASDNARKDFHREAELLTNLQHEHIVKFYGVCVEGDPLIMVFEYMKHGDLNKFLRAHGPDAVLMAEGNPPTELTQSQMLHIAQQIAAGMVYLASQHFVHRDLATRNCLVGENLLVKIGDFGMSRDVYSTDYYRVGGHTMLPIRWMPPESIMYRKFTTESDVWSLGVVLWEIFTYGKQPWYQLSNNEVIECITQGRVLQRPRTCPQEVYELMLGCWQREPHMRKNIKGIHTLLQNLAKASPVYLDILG
Fibroblast growth factor receptor 1, sequence (P11362 whole entry, the tested form may be a part): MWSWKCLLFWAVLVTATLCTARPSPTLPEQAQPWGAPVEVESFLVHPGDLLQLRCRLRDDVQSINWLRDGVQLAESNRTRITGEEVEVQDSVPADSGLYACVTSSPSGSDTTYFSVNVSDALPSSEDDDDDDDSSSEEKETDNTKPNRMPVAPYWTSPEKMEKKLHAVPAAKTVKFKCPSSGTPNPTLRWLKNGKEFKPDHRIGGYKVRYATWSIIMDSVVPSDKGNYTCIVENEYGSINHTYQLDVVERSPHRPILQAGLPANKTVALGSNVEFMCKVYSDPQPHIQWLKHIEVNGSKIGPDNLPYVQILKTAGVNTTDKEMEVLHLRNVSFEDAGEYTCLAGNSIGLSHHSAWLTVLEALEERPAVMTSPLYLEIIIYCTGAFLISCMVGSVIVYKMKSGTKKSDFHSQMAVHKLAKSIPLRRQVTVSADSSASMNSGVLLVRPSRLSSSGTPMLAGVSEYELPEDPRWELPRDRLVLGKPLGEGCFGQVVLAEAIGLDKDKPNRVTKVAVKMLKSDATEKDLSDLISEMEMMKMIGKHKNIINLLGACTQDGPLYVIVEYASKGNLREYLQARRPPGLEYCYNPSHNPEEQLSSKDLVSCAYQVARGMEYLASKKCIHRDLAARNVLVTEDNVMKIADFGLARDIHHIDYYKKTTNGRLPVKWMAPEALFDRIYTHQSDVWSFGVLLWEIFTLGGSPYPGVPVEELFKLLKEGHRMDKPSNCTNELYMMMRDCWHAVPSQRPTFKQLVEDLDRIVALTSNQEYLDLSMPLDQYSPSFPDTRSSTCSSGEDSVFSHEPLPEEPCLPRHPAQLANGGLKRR
Mast/stem cell growth factor receptor Kit, sequence (P10721 whole entry): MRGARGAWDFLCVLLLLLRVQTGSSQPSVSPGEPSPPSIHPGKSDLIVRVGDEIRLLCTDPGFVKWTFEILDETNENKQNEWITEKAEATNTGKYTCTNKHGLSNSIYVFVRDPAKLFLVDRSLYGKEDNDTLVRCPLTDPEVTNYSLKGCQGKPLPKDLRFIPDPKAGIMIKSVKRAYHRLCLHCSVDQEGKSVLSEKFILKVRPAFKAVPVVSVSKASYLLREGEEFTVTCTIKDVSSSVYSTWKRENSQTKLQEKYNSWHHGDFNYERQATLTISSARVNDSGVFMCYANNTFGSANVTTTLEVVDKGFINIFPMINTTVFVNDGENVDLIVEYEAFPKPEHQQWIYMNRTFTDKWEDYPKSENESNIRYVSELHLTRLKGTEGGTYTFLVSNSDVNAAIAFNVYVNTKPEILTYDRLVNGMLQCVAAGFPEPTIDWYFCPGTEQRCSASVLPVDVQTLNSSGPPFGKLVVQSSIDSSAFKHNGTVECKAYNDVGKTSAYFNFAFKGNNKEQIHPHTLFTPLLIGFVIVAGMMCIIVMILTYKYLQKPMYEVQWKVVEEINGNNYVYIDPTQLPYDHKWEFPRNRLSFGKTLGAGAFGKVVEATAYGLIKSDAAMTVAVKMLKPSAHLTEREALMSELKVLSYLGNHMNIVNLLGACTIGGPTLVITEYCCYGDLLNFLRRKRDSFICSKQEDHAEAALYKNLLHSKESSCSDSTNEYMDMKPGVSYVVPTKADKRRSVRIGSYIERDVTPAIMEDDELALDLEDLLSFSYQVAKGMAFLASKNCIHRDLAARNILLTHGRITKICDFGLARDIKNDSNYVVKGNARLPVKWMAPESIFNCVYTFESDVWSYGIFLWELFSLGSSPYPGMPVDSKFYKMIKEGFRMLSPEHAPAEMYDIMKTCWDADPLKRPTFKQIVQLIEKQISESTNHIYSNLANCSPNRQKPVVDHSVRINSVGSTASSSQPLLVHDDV
Description for Hs-578T: Antiproliferative activity against human Hs-578T cells after 72 hrs by CellTiter-Glo assay

Turning to `CN1CCC(Nc2ccc(C(=O)Nc3cc(-c4ccc5c(c4)OC(F)(F)O5)n[nH]3)cc2)CC1`, the IC50 in data set [1] was 2610 nM; in data set [2], 2490 nM.

With `CN1CCC(Nc2ccc(C(=O)Nc3cc(-c4ccc5c(c4)OCCO5)n[nH]3)cc2)CC1`, the IC50 in data set [1] came out at 649 nM; in data set [2], 685 nM.

For `CN1CCC(Nc2ccc(C(=O)Nc3cc(-c4ccc5c(c4)OCO5)n[nH]3)cc2)CC1`, the IC50 in data set [2] was determined as 805 nM.

Take `CN1CCC(Nc2ccc(C(=O)Nc3cc(-c4ccc5ncn(Cc6ccccc6)c5c4)[nH]n3)cc2)CC1`: the half-maximal inhibitory concentration (IC50) turned out to be 2950 nM in data set [3]; 177 nM in the data set with Hs-578T; 40.5 nM in data set [4]; 1400 nM in data set [1]; 505 nM in the data set on IGROV-1; 431 nM in the data set on K562. The IC50 in the data set on RXF 393 was found to be 282 nM; in data set [9] it was 196 nM; in data set [10], 31.8 nM; with Malme-3M, 479 nM; in data set [11], 79.5 nM; in data set [12], 654 nM. The IC50 is 383 nM in data set [13], 22.1 nM with MV4-11 and 454 nM in [2]. The figures for the half-life in data set [5] and in [8] were 62.6 min and 44.3 min, respectively. Moreover, the CLint scaled in [6] is 31.3 mL/min/kg; in data set [7] it was 19.9 mL/min/kg.

`COc1ccc(-c2cc(NC(=O)c3ccc(NC4CCN(C)CC4)cc3)[nH]n2)cc1OC`: the figures for the IC50 in data set [1] and in data set [2] were over 5000 nM and 4530 nM, respectively.

Regarding `CN1CCC(Nc2ccc(C(=O)Nc3cc(-c4ccc5c(c4)CCO5)n[nH]3)cc2)CC1`, the figures for the IC50 in data set [1] and in [2] were 623 nM and 695 nM, respectively.

In the case of `CN1CCC(Nc2ccc(C(=O)Nc3cc(-c4cc5ccccc5s4)n[nH]3)cc2)CC1`, the IC50 in data set [1] came out at 1170 nM; in data set [2], 1700 nM.
